Experimental findings from patent publication US20250115620A1, “BRIDGED TRICYCLIC CARBAMOYLPYRIDONE COMPOUNDS AND USES THEREOF” (Gilead Sciences, Inc., priority 2022, published 2025) are described below.

The test system of one data set is pLAI reporter virus. Kind of data set: microbe, parasite or virus in culture. Format: cell-based, HIV. The conditions noted are these: Human immunodeficiency virus 1, MT4, 72 h.
For the next data set, the system named is HIV-1 (IIIB). Kind of data set: microbe, parasite or virus in culture. Format: cell-based. The conditions noted are these: Human immunodeficiency virus 1, IIIB, MT4, 120 h, read-out: MT4 EC50.
A short description of a further data set: in vitro. The conditions noted are these: human; for CC50 at 5 days: uninfected MT-4 cells.
Where [1] appears, read: HIV-1 (IIIB) in MT-4 cells, 5 days incubation, Cell Titer Glo.

Read-outs that look alike come from different tables or passages of the source.

In the case of `C[C@H]1CC[C@]2(CC(Cc3ccccc3)=NO2)[C@H]2CN1C(=O)c1c(O)c(=O)c(C(=O)NCc3ccc(F)cc3F)cn12` [Example 12, (3′S,5S,7′R)-3-benzyl-N-(2,4-difluorobenzyl)-12′-hydroxy-3′-methyl-1′,11′-dioxo-1′,4′,5′,11′-tetrahydro-3′H,4H,7′H-spiro[isoxazole-5,6′-[2,7]methanopyrido[1,2-a][1,4]diazonine]-10′-carboxamide], the EC50 was 35.6 nM in the data set on pLAI reporter virus (read-out: RLUC 50% HS EC50), 1.1 nM with pLAI reporter virus (read-out: RLUC CCM EC50) and 1.7 nM with HIV-1 (IIIB). The compound also registered a CC50 in “in vitro” of 23500 nM.
In the case of `CC1=NO[C@]2(CC[C@H](C)N3C[C@H]2n2cc(C(=O)NCc4ccc(F)cc4F)c(=O)c(O)c2C3=O)C1C` (stereo partly drawn) [Example 23, (3′S,5R,7′R)—N-(2,4-difluorobenzyl)-12′-hydroxy-3,3′,4-trimethyl-1′,11′-dioxo-1′,4′,5′,11′-tetrahydro-3′H,4H,7′H-spiro[isoxazole-5,6′-[2,7]methanopyrido[1,2-a][1,4]diazonine]-10′-carboxamide], the EC50 was 0.9 nM in the data set with pLAI reporter virus (read-out: RLUC 50% HS EC50), 0.5 nM with pLAI reporter virus (read-out: RLUC CCM EC50) and 1.2 nM in the data set on HIV-1 (IIIB) (setting [1]). In addition, the CC50 at 5 days in the data set “in vitro” was at least 50000 nM.
Turning to `CC1=NO[C@@]2(CC[C@H](C)N3C[C@H]2n2cc(C(=O)NCc4c(F)cc(F)cc4F)c(=O)c(O)c2C3=O)C1` [Example 3, (3′S,5S,7′R)-12′-hydroxy-3,3′-dimethyl-1′,11′-dioxo-N-(2,4,6-trifluorobenzyl)-1′,4′,5′,11′-tetrahydro-3′H,4H,7′H-spiro[isoxazole-5,6′-[2,7]methanopyrido[1,2-a][1,4]diazonine]-10′-carboxamide], the EC50 in the data set with pLAI reporter virus (read-out: RLUC 50% HS EC50) is 71.2 nM; with pLAI reporter virus (read-out: RLUC CCM EC50), 0.2 nM; in the data set on HIV-1 (IIIB) (setting [1]), 0.9 nM. In “in vitro”, the CC50 at 5 days was 20100 nM.
On the same counts, the results for `CC1=NO[C@@]2(CC[C@@H](C)N3C[C@H]2n2cc(C(=O)NCc4c(F)cc(F)cc4F)c(=O)c(O)c2C3=O)C1` [Example 98, (3′R,5S,7′R)-12′-hydroxy-3,3′-dimethyl-1′,11′-dioxo-N-(2,4,6-trifluorobenzyl)-1′,4′,5′,11′-tetrahydro-3′H,4H,7′H-spiro[isoxazole-5,6′-[2,7]methanopyrido[1,2-a][1,4]diazonine]-10′-carboxamide] are 7.4 nM, 0.5 nM, 3 nM and 12700 nM.
Turning to `COC1=NO[C@@]2(CC[C@H](C)N3C[C@H]2n2cc(C(=O)NCc4ncc(F)c(Cl)c4F)c(=O)c(O)c2C3=O)C1` [Example 64, (3′S,5S,7′R)—N-((4-chloro-3,5-difluoropyridin-2-yl)methyl)-12′-hydroxy-3-methoxy-3′-methyl-1′,11′-dioxo-1′,4′,5′,11′-tetrahydro-3′H,4H,7′H-spiro[isoxazole-5,6′-[2,7]methanopyrido[1,2-a][1,4]diazonine]-10′-carboxamide], the values for the EC50 with pLAI reporter virus (read-out: RLUC 50% HS EC50), in the data set with pLAI reporter virus (read-out: RLUC CCM EC50) and with HIV-1 (IIIB) were 300 nM, 0.6 nM and 2.9 nM, respectively. The compound also came in with a CC50 at 5 days in “in vitro” of 22900 nM.
Turning to `CCC1=NO[C@@]2(CC[C@H](C)N3C[C@H]2n2cc(C(=O)NCc4ccc(F)cc4F)c(=O)c(O)c2C3=O)C1` [Example 8, (3′S,5S,7′R)—N-(2,4-difluorobenzyl)-3-ethyl-12′-hydroxy-3′-methyl-1′,11′-dioxo-1′,4′,5′,11′-tetrahydro-3′H,4H,7′H-spiro[isoxazole-5,6′-[2,7]methanopyrido[1,2-a][1,4]diazonine]-10′-carboxamide], the EC50 turned out to be 75.2 nM in the data set on pLAI reporter virus (read-out: RLUC 50% HS EC50), 0.2 nM in the data set with pLAI reporter virus (read-out: RLUC CCM EC50) and 0.8 nM with HIV-1 (IIIB) (setting [1]). Further, the CC50 at 5 days in the data set “in vitro” was 14800 nM.
Take `C[C@H]1CCC2(N=c3ccccc3=N2)[C@H]2CN1C(=O)c1c(O)c(=O)c(C(=O)NCc3c(F)cc(F)cc3F)cn12` [Example 142, (3′S,7′R)-12′-hydroxy-3′-methyl-1′,11′-dioxo-N-(2,4,6-trifluorobenzyl)-1′,4′,5′,11′-tetrahydro-3′H,7′H-spiro[benzo[d]imidazole-2,6′-[2,7]methanopyrido[1,2-a][1,4]diazonine]-10′-carboxamide]: the EC50 in the data set on pLAI reporter virus (read-out: RLUC 50% HS EC50) worked out at 0.7 nM; with pLAI reporter virus (read-out: RLUC CCM EC50), 0.5 nM; with HIV-1 (IIIB), 3.9 nM. The same compound returned a CC50 at 5 days in the data set “in vitro” of at least 50000 nM.
Take `[2H]C1C(OC)=NO[C@@]12CC[C@H](C)N1C[C@H]2n2cc(C(=O)NCc3c(F)cc(F)cc3F)c(=O)c(O)c2C1=O` (stereo partly drawn) [Example 83, (3′S,5S,7′R)-12′-hydroxy-3-methoxy-3′-methyl-1′,11′-dioxo-N-(2,4,6-trifluorobenzyl)-1′,4′,5′,11′-tetrahydro-3′H,4H,7′H-spiro[isoxazole-5,6′-[2,7]methanopyrido[1,2-a][1,4]diazonine]-4-d-10′-carboxamide]: the values for the EC50 in the data set with pLAI reporter virus (read-out: RLUC 50% HS EC50), with pLAI reporter virus (read-out: RLUC CCM EC50) and with HIV-1 (IIIB) (setting [1]) were 41.1 nM, 0.3 nM and 2.3 nM, respectively. In addition, the CC50 at 5 days in the data set “in vitro” turned out to be 16200 nM.
Take `C[C@H]1CC[C@]2(CC(=O)N(Cc3ccc4ncsc4c3)O2)[C@H]2CN1C(=O)c1c(O)c(=O)c(C(=O)NCc3c(F)cc(F)cc3F)cn12` [Example 112, (3′S,5S,7′R)-2-(benzo[d]thiazol-6-ylmethyl)-12′-hydroxy-3′-methyl-1′,3,11′-trioxo-N-(2,4,6-trifluorobenzyl)-1′,4′,5′,11′-tetrahydro-3′H,7′H-spiro[isoxazolidine-5,6′-[2,7]methanopyrido[1,2-a][1,4]diazonine]-10′-carboxamide]: the EC50 was determined as 0.4 nM in the data set with pLAI reporter virus (read-out: RLUC 50% HS EC50), 0.2 nM in the data set with pLAI reporter virus (read-out: RLUC CCM EC50) and 0.7 nM in the data set on HIV-1 (IIIB) (setting [1]). For the same compound, in “in vitro”, the CC50 at 5 days was at least 50000 nM.
As for `C[C@H]1CC[C@]2(CC(=O)N(Cc3nc4ccccc4n3C)O2)[C@H]2CN1C(=O)c1c(O)c(=O)c(C(=O)NCc3c(F)cc(F)cc3F)cn12` [Example 163, (3′S,5S,7′R)-12′-hydroxy-3′-methyl-2-((1-methyl-1H-benzo[d]imidazol-2-yl)methyl)-1′,3,11′-trioxo-N-(2,4,6-trifluorobenzyl)-1′,4′,5′,11′-tetrahydro-3′H,7′H-spiro[isoxazolidine-5,6′-[2,7]methanopyrido[1,2-a][1,4]diazonine]-10′-carboxamide], the EC50 in the data set with pLAI reporter virus (read-out: RLUC 50% HS EC50) came to 2 nM; in the data set on pLAI reporter virus (read-out: RLUC CCM EC50), 0.9 nM; in the data set on HIV-1 (IIIB) (setting [1]) it was 1.5 nM. In “in vitro”, the CC50 at 5 days is at least 50000 nM.
As for `C[C@H]1CC[C@@]2(CO2)[C@H]2CN1C(=O)c1c(O)c(=O)c(C(=O)NCc3c(F)cc(F)cc3F)cn12` [Example 166, (2S,3′S,7′R)-12′-hydroxy-3′-methyl-1′,11′-dioxo-N-(2,4,6-trifluorobenzyl)-1′,4′,5′,11′-tetrahydro-3′H,7′H-spiro[oxirane-2,6′-[2,7]methanopyrido[1,2-a][1,4]diazonine]-10′-carboxamide], the EC50 in the data set with pLAI reporter virus (read-out: RLUC 50% HS EC50) amounted to 1.3 nM; in the data set with pLAI reporter virus (read-out: RLUC CCM EC50), 0.2 nM; in the data set on HIV-1 (IIIB) (setting [1]), 0.9 nM. This compound had a CC50 at 5 days in “in vitro” of 4600 nM.
As to `COC1=NO[C@@]2(CC[C@H](C)N3C[C@H]2n2cc(C(=O)NCc4c(F)cc(F)cc4F)c(=O)c(O)c2C3=O)[C@H]1O` [Example 84, (3′S,4R,5R,7′R)-4,12′-dihydroxy-3-methoxy-3′-methyl-1′,11′-dioxo-N-(2,4,6-trifluorobenzyl)-1′,4′,5′,11′-tetrahydro-3′H,4H,7′H-spiro[isoxazole-5,6′-[2,7]methanopyrido[1,2-a][1,4]diazonine]-10′-carboxamide], the results for the EC50 in the data set with pLAI reporter virus (read-out: RLUC 50% HS EC50), with pLAI reporter virus (read-out: RLUC CCM EC50) and in the data set on HIV-1 (IIIB) (setting [1]) were 22.3 nM, 0.3 nM and 1.6 nM, respectively. Further, the CC50 at 5 days in the data set “in vitro” worked out at 25800 nM.
Taken in the same sequence, the figures for `C[C@H]1CC[C@]2(COC(F)(F)O2)[C@H]2CN1C(=O)c1c(O)c(=O)c(C(=O)NCc3c(F)cc(F)cc3F)cn12` [Example 141, (3′S,4R,7′R)-2,2-difluoro-12′-hydroxy-3′-methyl-1′,11′-dioxo-N-(2,4,6-trifluorobenzyl)-1′,4′,5′,11′-tetrahydro-3′H,7′H-spiro[[1,3]dioxolane-4,6′-[2,7]methanopyrido[1,2-a][1,4]diazonine]-10′-carboxamide] were 263 nM, 0.2 nM, 0.9 nM and 30400 nM.
For `[2H]C([2H])([2H])OC1=NO[C@@]2(CC[C@H](C)N3C[C@H]2n2cc(C(=O)NCc4ccc(F)cc4F)c(=O)c(O)c2C3=O)C1` [Example 153, (3′S,5S,7′R)—N-(2,4-difluorobenzyl)-12′-hydroxy-3-(methoxy-d3)-3′-methyl-1′,11′-dioxo-1′,4′,5′,11′-tetrahydro-3′H,4H,7′H-spiro[isoxazole-5,6′-[2,7]methanopyrido[1,2-a][1,4]diazonine]-10′-carboxamide], the figures for the EC50 with pLAI reporter virus (read-out: RLUC 50% HS EC50), with pLAI reporter virus (read-out: RLUC CCM EC50) and in the data set on HIV-1 (IIIB) (setting [1]) were 16.1 nM, 0.2 nM and 0.9 nM, respectively. Besides, the CC50 at 5 days in “in vitro” amounted to 17600 nM.
Consider `C[C@H]1CC[C@]2(CC(=O)N(Cc3ccc4ccccc4c3)O2)[C@H]2CN1C(=O)c1c(O)c(=O)c(C(=O)NCc3c(F)cc(F)cc3F)cn12` [Example 107, (3′S,5S,7′R)-12′-hydroxy-3′-methyl-2-(naphthalen-2-ylmethyl)-1′,3,11′-trioxo-N-(2,4,6-trifluorobenzyl)-1′,4′,5′,11′-tetrahydro-3′H,7′H-spiro[isoxazolidine-5,6′-[2,7]methanopyrido[1,2-a][1,4]diazonine]-10′-carboxamide], for which the EC50 with pLAI reporter virus (read-out: RLUC 50% HS EC50) was determined as 10.2 nM; in the data set on pLAI reporter virus (read-out: RLUC CCM EC50), 0.3 nM; in the data set on HIV-1 (IIIB) (setting [1]), 0.8 nM. Besides, in the data set “in vitro”, the CC50 at 5 days is at least 50000 nM.
Turning to `C[C@H]1CC[C@@]2(CCO2)[C@H]2CN1C(=O)c1c(O)c(=O)c(C(=O)NCc3c(F)cc(F)cc3F)cn12` [Example 55, (2R,3′S,7′R)-12′-hydroxy-3′-methyl-1′,11′-dioxo-N-(2,4,6-trifluorobenzyl)-1′,4′,5′,11′-tetrahydro-3′H,7′H-spiro[oxetane-2,6′-[2,7]methanopyrido[1,2-a][1,4]diazonine]-10′-carboxamide], the EC50 in the data set on pLAI reporter virus (read-out: RLUC 50% HS EC50) came out at 51 nM; in the data set on pLAI reporter virus (read-out: RLUC CCM EC50), 1.1 nM; with HIV-1 (IIIB) (setting [1]), 1.7 nM. For the same compound, in “in vitro”, the CC50 at 5 days was at least 50000 nM.
